According to patent US6214805A, “RNase L activators and antisense oligonucleotides effective to treat RSV infections” (priority 1997, dated 2001):
Where “and” joins values, the source holds several entries; their conditions need not be identical. Equal values may be shown once.

What was measured:
RSV strain A2 [1] = test: Inhibition of RSV replication in RSV-infected 9HTE cells, virus plaque assay on CV-1 cells at 36 h post-infection; format: cell-based, Respiratory syncytial virus; conditions: 9HTE cells; for % Inhibition of RSV replication: M.O.I. 2.0, 36 hrs post-infection
Text: To develop 2-5A antisense chimeras with the potential to block RSV replication, an oligonucleotide binding site in the viral RNA polymerase (RSV L) mRNA, which encodes a low abundance message that is absolutely required for RSV replication was selected. The first chimera synthesized and evaluated was pA4 -antiRSV/(8490-8509). The binding sites for the chimeric oligonucleotide's antisense domain are to the transcripts of nucleotides 8490-8509 in the RSV genome, which spans the translation start codon for the L protein, and to nucleotides 8490-8509 of the antigenomic strand (the template for reproduction of the genome). Since to function as an effective treatment, a candidate agent must be able to inhibit viral replication subsequent to diagnosis, the anti-RSV effect of the 2-5A antisense chimera was determined on human tracheal epithelial cells, 9HTE, with treatments beginning either 4 h before RSV infection (pre-/post-infection treatments) or 2 h following infection (post-infection treatments). In the post-infection treatments, pA4 -antiRSV/([…]), was added at t+2, t+14 and t+26, (numbers represent time in h relative to time of infection, 0) For pre-infection treatment, pA4 -antiRSV/(8490-8509) (10 μM final concentration), was added at t-4, and t0 in addition to […]; t+14 and t+26. Virus harvested from control and oligonucleotide-treated 9HTE cells was measured by infecting CV-1 cells and subsequently counting viral plaques. […] On the basis of these experiments, all subsequent experiments were performed with post-infectiontreatments only. Additionally, these experiments indicate the potential use of these compounds as a treatment for active infection as compared to a prophylactic measure.
The human tracheal epithelial cell line, 9HTE, (Gruenert et al., 1988) and CV-1 cells, (American Type Culture Collection, Rockville, Md., CCI#70) a green monkey kidney cell line which is highly permissive to RSV infection, were cultured in minimal essential medium (MEM) supplemented with 10% (v/v) fetal bovine serum (FBS), 2 mM L-glutamine, 1× MEM amino acids solution, 1× MEM non-essential amino acids solution, 100 U/ml penicillin, 100 μg/ml streptomycin and 0.25 μg/ml amphotericin B ("culture medium") (all reagents from Gibco BRL, Bethesda, Md.). RSV strain A2 (ATCC No. VR1302) was propagated in CV-1 cells. CV-1 monolayers were infected at a multiplicity of infection (M.O.I.) of 0.2 and cultured 46 h in MEM, 2% FBS, 1× Penicillin/Streptomycin (PS) in 5% CO2, 95% O2 at 37° C. Cells were then washed 2 times in MEM and subsequently covered in MEM, 2% FBS, 1× PS, 50 mM HEPES (pH7.5), 100 mM Mg(SO4). After 2 h at 37° C., cells were scraped and sonicated as previously described (Panuska et al., 1995). Aliquots (1 ml each) of cell sonicates were flash frozen in ethanol/dry ice within 20 min of scraping. Several aliquots were then thawed and titered by a plaque assay on CV-1 cells as previously described (Cirino et al., 1993). The range of virus yield from this procedure was 2 to 7×10^6 plaque forming units (pfu) per ml.
Infection of 9HTE cells was performed as previously described (Merolla et al., 1994). Briefly, confluent monolayers were exposed to RSV diluted in MEM, 2% FBS, for 2 h at 37° C. in 5% CO2, 95% O2. After exposure, cells were washed two times with serum-free MEM media and then fresh culture media (with 10% FBS) was added. Oligonucleotides were either added 4 h prior to infection (t-4) or immediately after infection (t+2) and also at t+14 and t+26. Cells were harvested for plaque assays at 36 h post-infection to determine viral titers as previously described (Cirino et al., 1993). Cells were washed twice to remove any residual antisense and were then scraped in MEM containing 2% FBS, 1× PS. 9HTE cells were sonicated for 20 sec on ice then the extracts were serially diluted and transferred to a confluent monolayer of CV-1 for quantitation of infectious viral particles. […]

RSV strain A2 [2] = test: CPE inhibition assay in HEp-2 cells; format: cell-based, Respiratory syncytial virus; conditions: Table 10, CPE, HEp2; for EC50: read-out: EC50
Experimental: The CPE inhibition assay used in this study was performed as described by Sidwell and Huffman (Sidwell et al., 1971, Appl. Microbiol. 22:7979-7801) with slight modifications. Varying concentrations of test compounds were added to each plate containing near confluent cell monolayers (1×10^5 cells/well) followed immediately by the addition of virus at a multiplicity of infection (MOI)=0.01, and then incubated at 37° C. […] All compounds were assayed for virus inhibition in quadruplicate and for cytotoxicity in duplicate. For each compound, two wells were set aside as uninfected, untreated cell controls per test and four wells per test received virus only and represented controls for virus replication. […] For all CPE-based assays, the 50% effective concentration (EC50) was calculated by regression analysis using the means of the CPE ratings at each concentration of compound.

Hep-2 Cells [3] = test: Cytotoxicity by morphological changes in HEp-2 cells (CPE inhibition assay); format: cell-based, human; conditions: Table 10, CPE, HEp2
Experimental: (§1) Embryonic African green monkey kidney cells (MA-104) were obtained from BioWhittaker, Inc. (Walkersville, Md.). HEp-2 cells were propagated from a human epidermoid carcinoma of the larynx (American Type Culture Collection, ATCC; Rockville, Md.). The cells were grown in minimal essential medium. (MEM, Gibco-BRL, Gaitherburg, Md.) supplemented with 0.1% NaHCO3 and 10% fetal bovine serum (FBS, Hyclone Laboratories, Logan Utah.). When performing antiviral assays, serum was reduced to 2% and 50 μg/ml gentamicin (Sigma Chemical Company, St. Louis, Mo.) was added to the medium.
Morphological changes due to compound cytotoxicity were graded on a scale of 0-5; grade 5 was defined as 100% cytotoxicity. The 50% cytotoxic dose (IC50 was calculated by regression analysis. A selective index (S.I.) was calculated for each compound [S.I.=(IC50)/(EC50 ].

RSV strain A2 [4] = test: Neutral red uptake assay of CPE inhibition in HEp-2 cells; format: cell-based, Respiratory syncytial virus; conditions: Table 11, neutral red, HEp2; for EC50: read-out: EC50
Experimental: (§2) This assay was performed by a modified method as described by Cavenaugh et al. (Cavenaugh et al. 1990, Invest. New Drugs 8:347-354). Briefly, medium was removed from each well of a plate scored for CPE from a CPE inhibition assay, 0.2 ml of neutral red (0.034% in PSS) was added to each of the wells of that plate and the plate incubated for 2 hr at 37° C. in the dark. The neutral red solution was removed from the wells and the wells rinsed twice with PBS (pH 7.4). Equal volumes (0.1 ml) of absolute ethanol and Sorenson citrate buffer (0.1 M sodium citrate, 0.1 M HCI, pH 4.2) were mixed together and added to each well. Plates were incubated in the dark for 30 min. at room temperature to solubilize the dye. The plates were then gently mixed on a 96-well plate adapted vortexer for 1 min. Absorbances at 540 nm and 450 nm were read with a microplate reader (Bio-Tek EL 1309; Bio-Tek Instruments, Inc. Winooski, Vt.). Absorbance values were expressed as percents of untreated controls and EC50 and IC50 values were calculated by regression analysis.

Hep-2 Cells [5] = test: Neutral red uptake assay of cytotoxicity in HEp-2 cells; format: cell-based, human; conditions: Table 11, neutral red, HEp2
Experimental: as §1, §2

[6] = 6.6 μM oligonucleotide/treatment at t+2, t+14, t+26 h
[7] = 9.9 μM oligonucleotide/treatment at t+2, t+14, t+26 h
[8] = 3.3 μM oligonucleotide/treatment at t+2, t+14, t+26 h
[9] = q.d. 1 day (added along with virus, never replenished)

Q: Which results are given for “A2'p(A2'p)3 -[(Bu)p]2 -(5'aat ggg atc cat ttt gtc c3'-3'c5') [A4-antiRSV3'-3'C/(8490-8509)]”?
A: % Inhibition of RSV replication (RSV strain A2 [1]; [6]): 20%; % Inhibition of RSV replication (RSV strain A2 [1]; [7]): 28.3%

Q: How did the “% Inhibition of RSV replication” value (RSV strain A2 [1]; [7]) turn out when “pA2'p(A2'p)3 -[(Bu)p]2 -(3'ccc tgt ttt acc tag ggt aa5') [pA4-3'antiRSV5'/(8490-8509)]” was run?
A: 69%

Q: Which “% Inhibition of RSV replication” value (RSV strain A2 [1]; [8]) does the source give for “pA2'p(A2'p)3 -[(Bu)p]2 -(5'aat ggg atc cat ttt gtc c3'-3'c5') [pA4-antiRSV3'-3'C/(8490-8509)]” here?
A: 2%

Q: And the “% Inhibition of RSV replication” value (RSV strain A2 [1]; [6])?
A: 64.3% and 38.8%

Q: What about the “% Inhibition of RSV replication” value (RSV strain A2 [1]; [7]) of the same substance?
A: 64.8% and 74%

Q: With “pA2'p(A2'p)3 -[(Bu)p]2 -(5'aat ggg atc cat ttt gtc cc3') [pA4-antiRSV/(8490-8509)]” as the substance, how does the “% Inhibition of RSV replication” value (RSV strain A2 [1]; [8]) read?
A: 3%

Q: And the “% Inhibition of RSV replication” value (RSV strain A2 [1]; [6])?
A: 38.8%

Q: And the “% Inhibition of RSV replication” value (RSV strain A2 [1]; [7])?
A: 64.8%

Q: And the “inhibition of RSV replication” value (RSV strain A2 [1]; post-infection treatment, 10 μM at t+2, t+14, t+26)?
A: about 70%

Q: And the “inhibition of RSV replication” value (RSV strain A2 [1]; pre-/post-infection treatment, 10 μM at t-4, t0 and after infection)?
A: about 70%

Q: Which results are given for “sp(5'A2')4 BupBupd(GsAsTsAGAAATAGAAAsGsCsA) (antisense GATAGAAATAGAAAGCA; chemistry not fully specified) [MP426, 2-5A-antisense control with scrambled antisense domain of MP351]”?
A: SI (RSV strain A2 [2]; B.I.D. 2 days): > 32; SI (RSV strain A2 [2]; B.I.D. 3 days): 16; EC50 (RSV strain A2 [2]; B.I.D. 3 days): 0.2 µM; SI (RSV strain A2 [2]; B.I.D. 4 days): 3.2; EC50 (RSV strain A2 [2]; [9]): > 3.2 µM; SI (RSV strain A2 [2]; q.d. 3 days): > 1; EC50 (RSV strain A2 [2]; q.d. 3 days): 3.2 µM; SI (RSV strain A2 [2]; q.d. 4 days): > 3.2; IC50 (Hep-2 Cells [3]; B.I.D. 2 days): > 3.2 µM; IC50 (Hep-2 Cells [3]; B.I.D. 3 days): 3.2 µM; IC50 (Hep-2 Cells [3]; B.I.D. 4 days): 3.2 µM; IC50 (Hep-2 Cells [3]; [9]): > 3.2 µM; IC50 (Hep-2 Cells [3]; q.d. 3 days): > 3.2 µM; IC50 (Hep-2 Cells [3]; q.d. 4 days): > 3.2 µM; SI (RSV strain A2 [4]; B.I.D. 2 days): > 11; EC50 (RSV strain A2 [4]; B.I.D. 2 days): 0.3 µM; SI (RSV strain A2 [4]; B.I.D. 3 days): 3.2; EC50 (RSV strain A2 [4]; B.I.D. 4 days): > 3.2 µM; EC50 (RSV strain A2 [4]; [9]): > 3.2 µM; EC50 (RSV strain A2 [4]; q.d. 3 days): > 3.2 µM; EC50 (RSV strain A2 [4]; q.d. 4 days): > 3.2 µM; IC50 (Hep-2 Cells [5]; B.I.D. 2 days): > 3.2 µM; IC50 (Hep-2 Cells [5]; B.I.D. 3 days): 3.2 µM; IC50 (Hep-2 Cells [5]; B.I.D. 4 days): 3.2 µM; IC50 (Hep-2 Cells [5]; [9]): > 3.2 µM; IC50 (Hep-2 Cells [5]; q.d. 3 days): 3.2 µM; IC50 (Hep-2 Cells [5]; q.d. 4 days): 3.2 µM

Q: How did the “% Inhibition of RSV replication” value (RSV strain A2 [1]; [8]) turn out when “spA2'p(A2'p)3 -[(Bu)p]2 -(5'aat ggg atc cat ttt gtc cc3') [spA4-antiRSV/(8490-8509)]” was run?
A: 16.5%

Q: What about the “% Inhibition of RSV replication” value (RSV strain A2 [1]; [6]) of the same substance?
A: 71%

Q: What about the “% Inhibition of RSV replication” value (RSV strain A2 [1]; [7]) of the same substance?
A: 94%

Q: With “spA2'p(A2'p)3 -[(Bu)p]2 -(5'ata gtg tgt tct ttt gat t3'-3'a5') [spA4-antiRSV3'-'3A/(8251-8270)]” as the substance, how does the “% Inhibition of RSV replication” value (RSV strain A2 [1]; [8]) read?
A: 86.7%

Q: What about the “% Inhibition of RSV replication” value (RSV strain A2 [1]; [6]) of the same substance?
A: 92%

Q: With “spA2'p(A2'p)3 -[(Bu)p]2 -(5'ctc tga gaa aga gat aa3'-3'c5') [spA4-antiRSV3'-3'C/(8561-8578)]” as the substance, how does the “% Inhibition of RSV replication” value (RSV strain A2 [1]; [8]) read?
A: 57%

Q: With “spA2'p(A2'p)3 -[(Bu)p]2 -(5'gat aag gac cat tga ata t3'-3'g5') [spA4-antiRSV3'-3'G/(8599-8618)]” as the substance, how does the “% Inhibition of RSV replication” value (RSV strain A2 [1]; [8]) read?
A: 43% and 44%

Q: With “spA2'p(A2'p)3 -[(Bu)p]2 -(5'gat tga aat ata gtg tgt3'-3't5') [spA4-antiRSV3'-3'T/(8261-8279)]” as the substance, how does the “% Inhibition of RSV replication” value (RSV strain A2 [1]; [8]) read?
A: 78%

Q: And the “% Inhibition of RSV replication” value (RSV strain A2 [1]; [6])?
A: 87%

Q: And the “% Inhibition of RSV replication” value (RSV strain A2 [1]; [7])?
A: 87%
